Data taken from ChEMBL document CHEMBL4229566, “Discovery of ( S)-3-(3-(3,5-Dimethyl-1 H-pyrazol-1-yl)phenyl)-4-(( R)-3-(2-(5,6,7,8-tetrahydro-1,8-naphthyridin-2-yl)ethyl)pyrrolidin-1-yl)butanoic Acid, a Nonpeptidic αvβ6 Integrin Inhibitor for the Inhaled Treatment of Idiopathic Pulmonary Fibrosis” (J Med Chem, 2018).

Assays:
[1] = biological target: T1, Voltage-gated inwardly rectifying potassium channel KCNH2 (Homo sapiens, UniProt Q12809)
Description: Inhibition of human ERG expressed in HEK293 cells by Barracuda automated patch clamp assay

[2] = physchem; settings: buffer, pH 7.4, logD
[3] = biological target: T1, Voltage-gated inwardly rectifying potassium channel KCNH2; remark: listed apart in the source
Description: Inhibition of human ERG expressed in HEK293 cells by Q-patch assay

[4] = Protein binding in human blood at 1 ug/ml after 4 hrs by LC-MS/MS analysis; assay type: ADME, tissue-based; settings: at 1 µg/mL, read-out: PB (converted)

T1 sequence (Q12809 whole entry): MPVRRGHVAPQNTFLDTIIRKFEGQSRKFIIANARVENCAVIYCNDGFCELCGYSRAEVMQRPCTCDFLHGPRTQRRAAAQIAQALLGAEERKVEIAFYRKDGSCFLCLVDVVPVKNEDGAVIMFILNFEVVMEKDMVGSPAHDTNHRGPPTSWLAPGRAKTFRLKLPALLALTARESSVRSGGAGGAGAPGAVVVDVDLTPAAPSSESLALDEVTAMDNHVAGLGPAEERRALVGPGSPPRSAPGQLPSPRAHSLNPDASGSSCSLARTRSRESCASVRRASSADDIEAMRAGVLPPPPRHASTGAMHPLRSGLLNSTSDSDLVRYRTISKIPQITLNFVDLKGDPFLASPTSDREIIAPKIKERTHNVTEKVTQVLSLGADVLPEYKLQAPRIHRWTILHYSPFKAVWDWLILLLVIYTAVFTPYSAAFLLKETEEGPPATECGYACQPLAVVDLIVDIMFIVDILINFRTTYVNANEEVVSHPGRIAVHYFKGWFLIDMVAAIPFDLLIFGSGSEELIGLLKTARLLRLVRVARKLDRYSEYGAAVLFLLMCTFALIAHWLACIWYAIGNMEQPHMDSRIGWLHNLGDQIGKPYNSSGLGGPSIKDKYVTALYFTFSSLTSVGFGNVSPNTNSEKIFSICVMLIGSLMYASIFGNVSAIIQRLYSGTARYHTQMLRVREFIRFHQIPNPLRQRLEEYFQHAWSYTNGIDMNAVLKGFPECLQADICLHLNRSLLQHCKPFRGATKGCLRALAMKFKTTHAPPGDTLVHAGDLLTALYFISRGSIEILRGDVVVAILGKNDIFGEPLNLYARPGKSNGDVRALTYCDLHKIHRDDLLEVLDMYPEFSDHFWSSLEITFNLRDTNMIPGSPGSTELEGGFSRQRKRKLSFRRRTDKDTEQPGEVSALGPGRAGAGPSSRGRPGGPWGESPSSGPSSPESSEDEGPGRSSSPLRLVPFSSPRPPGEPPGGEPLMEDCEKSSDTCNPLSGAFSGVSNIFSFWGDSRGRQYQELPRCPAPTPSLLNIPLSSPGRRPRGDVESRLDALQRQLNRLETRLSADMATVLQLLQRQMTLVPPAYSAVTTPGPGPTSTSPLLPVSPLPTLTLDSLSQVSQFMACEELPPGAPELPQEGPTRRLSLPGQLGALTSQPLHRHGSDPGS

logD [2]	fraction unbound at 4 h, 1 ug/ml [4]	SMILES	IC50 [1]	IC50 [3]
2.73		Cc1cc(C)n(-c2cc([C@H](CC(=O)O)CN3CC[C@@H](CCc4ccc5c(n4)NCCC5)C3)cc(N3CCOCC3)c2)n1	> 63.1 µM	
2.72		Cc1cnn(C)c1-c1cccc([C@H](CC(=O)O)CN2CC[C@@H](CCc3ccc4c(n3)NCCC4)C2)c1		
1.75	0.28	O=C(O)C[C@H](CN1CC[C@@H](CCc2ccc3c(n2)NCCC3)C1)c1cccc(-n2ccnn2)c1	> 50.1 µM	> 31.6 µM
